Laboratory results taken from patent US12338216B2, “Solvates of abscisic acid and liquid compositions containing abscisic acid” (Clariant International Ltd., priority 2019, dated 2025).

Tests used:
[1] = test system: enzymatically isolated cuticles of pear tree leaves; assay: Penetration of abscisic acid through enzymatically isolated cuticles of pear tree leaves (HPLC); assay type: in vitro ADME; conditions: active ingredient 0.1 g/L in spray liquid, tap water, n = 8-10
Description: In this test, the penetration of abscisic acid through enzymatically isolated cuticles of pear tree leaves was measured. The principle of the method has been published and described in detail e.g. in WO-A-2005/194844 or WO2017211572 A1.
To determine the penetration, 10 μl a spray liquor of the composition mentioned in the examples were applied to the outer side of a cuticle. In the spray liquors tap water was used in each case.
After application of the spray liquors was allowed to evaporate in each case the water, then in each case the chambers were inverted and placed in thermostated troughs, with air being blown at a defined temperature and humidity to the outside of the cuticle. The incipient penetration therefore took place at a relative humidity of 56% and a set temperature at 10° C. and 25° C. The penetration of active ingredients was determined by High Performance Liquid Chromatography (HPLC).

[2] = room temperature; cited from earlier work
[3] = test system: poinsettia plants, e.g. the Merlot variety; assay: Phytotoxicity / plant compatibility on indicator plants; assay type: in vivo; conditions: 1 g/L; within one day
From the text: The plant compatibility of the abscisic acid was checked using indicator plants such as poinsettia plants, e.g. the Merlot variety. If no necrosis or other phytotoxicity symptoms such as leaf curl-up or deformation in any case were observed the substance is considered plant compatible and not phytotoxic.

| Compound | Mean penetration for abscisic acid after time ([1]; 10° C./56% rH, 1 day) | Mean penetration for abscisic acid after time ([1]; 10° C./56% rH, 2 day) | Mean penetration for abscisic acid after time ([1]; 25° C./56% rH, 1 day) | Mean penetration for abscisic acid after time ([1]; 25° C./56% rH, 2 day) | Highest concentration that can be achieved in water [2] | Phytotoxicity symptoms [3] |
| --- | --- | --- | --- | --- | --- | --- |
| CC1=CC(=O)CC(C)(C)[C@@]1(O)/C=C/C(C)=C\C(=O)O [abscisic acid, (2Z,4E)-5-[(1S)-1-hydroxy-2,6,6-trimethyl-4-oxocyclohex-2-en-1-yl]-3-methylpenta-2,4-dienoic acid] | 5.3% | 8.2% | 1.4% | 2.2% | about 3000 ppm | – |
| ethoxylated lauryl alcohol | – | – | – | – | – | strong distinct necrosis |
